US10253081B2, “Glucagon analogues” (Zealand Pharma A/S, priority 2012, dated 2019)
*1 amine or outer side, *2 acyl side, *3 side chain or, on linkers, in order; H or OH if unused. Where a SMILES comes first, the peptide text is derived from it. Side-chain parts run from the residue outwards. [ ]: non-standard residue; d: D form. The star is where a group is joined. γGlu = O=C(O)[C@H](CCC(=O)[*:2])N[*:1]; Palmitoyl = CCCCCCCCCCCCCCCC(=O)*; Aib = CC(C)(N)C(=O)O

Assays:
Assay type in all cases: cell-based
[1] = target: T1, human glucagon receptor (Glucagon-R) (Homo sapiens, UniProt P47871); assay: Glucagon receptor efficacy assay (cAMP AlphaScreen, CHO cells); details: Table 1B; same protocol, different laboratory; read-out: EC50 hGCGR CHO-K1
T1 construct: expressed in transfected cells
T1 sequence (P47871 26-477): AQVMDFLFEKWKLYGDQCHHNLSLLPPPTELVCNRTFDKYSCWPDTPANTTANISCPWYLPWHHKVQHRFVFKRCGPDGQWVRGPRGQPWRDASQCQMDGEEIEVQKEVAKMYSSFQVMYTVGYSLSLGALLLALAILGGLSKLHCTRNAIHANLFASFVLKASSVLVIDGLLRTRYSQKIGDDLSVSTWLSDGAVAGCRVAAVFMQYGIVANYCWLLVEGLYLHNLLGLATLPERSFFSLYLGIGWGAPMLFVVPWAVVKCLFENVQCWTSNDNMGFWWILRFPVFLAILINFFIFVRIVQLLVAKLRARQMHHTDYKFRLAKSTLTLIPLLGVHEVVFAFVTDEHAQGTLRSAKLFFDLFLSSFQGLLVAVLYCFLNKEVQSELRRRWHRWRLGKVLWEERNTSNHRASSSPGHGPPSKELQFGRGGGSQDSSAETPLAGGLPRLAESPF
Excerpt: (§1) The cDNA encoding either the human glucagon receptor (Glucagon-R) (primary accession number P47871) or the human glucagon-like peptide 1 receptor (GLP-1R) (primary accession number P43220) were synthesized and cloned into a mammalian expression vector containing a Zeocin resistance marker.
(§2) The mammalian expression vectors encoding the Glucagon-R or the GLP-1-R were transfected into Chinese hamster ovary (CHO) cells by the Attractene method method. Stably expressing clones were obtained by Zeocin selection (250 μg/mL) upon limited dilution of cells resistant to the selection pressure. Glucagon-R and GLP-1-R cell clones expressing were picked, propagated and tested in the Glucagon-R and GLP-1-R efficacy assays as described below. One Glucagon-R expressing clone and one GLP-1-R expressing clone were chosen for compound profiling.
(§3) CHO cells expressing the human Glucagon-R, or human GLP-1-R were seeded 24 hours prior to the assay at 30,000 cells per well in 96-well microtiter plates in culture in 100 μl growth medium. On the day of analysis, growth medium was removed and the cells were washed once with 200 μl of assay buffer (Krebs-Ringer-buffer—KRBH). The buffer was removed and the cells were incubated for 15 min at room temperature in 10 μl KRBH (KRBH+10 mM HEPES, 5 mM NaHCO3, 0.1% (V/V) BSA) with 0.1 mM IBMX in deionized water containing increasing concentrations of test peptides. The reaction was stopped by the addition of lysis buffer (0.1% w/v BSA, 5 mM HEPES, 0.3% v/v Tween-20). After cell lysis for 10 min at room temperature, lysates were transferred to 384-well plates and 10 μl of acceptor/donorbead mixture as contained in the AlphaScreen™ cAMP Functional Assay Kit was added. After one hour of incubation at room temperature in the dark, the cAMP content was determined applying the AlphaScreen™ cAMP Functional Assay Kit from Perkin-Elmer according to manufacturer instructions. EC50 and relative efficacies compared to reference compounds (glucagon and GLP-1) were calculated applying computer aided curve fitting. The GLP-1/glucagon ratio is calculated as defined earlier.

[2] = target: T2, human glucagon-like peptide 1 receptor (GLP-1R) (Homo sapiens, UniProt P43220); assay: GLP-1 receptor efficacy assay (cAMP AlphaScreen, CHO cells); details: Table 1B; for Ratio GLP-1/Glucagon: EC50 [GLP-1R]/EC50 [Glucagon-R]; for EC50: same protocol, different laboratory, read-out: EC50 hGLP-1R CHO-K1
T2 construct: expressed in transfected cells
T2 sequence (P43220 24-463): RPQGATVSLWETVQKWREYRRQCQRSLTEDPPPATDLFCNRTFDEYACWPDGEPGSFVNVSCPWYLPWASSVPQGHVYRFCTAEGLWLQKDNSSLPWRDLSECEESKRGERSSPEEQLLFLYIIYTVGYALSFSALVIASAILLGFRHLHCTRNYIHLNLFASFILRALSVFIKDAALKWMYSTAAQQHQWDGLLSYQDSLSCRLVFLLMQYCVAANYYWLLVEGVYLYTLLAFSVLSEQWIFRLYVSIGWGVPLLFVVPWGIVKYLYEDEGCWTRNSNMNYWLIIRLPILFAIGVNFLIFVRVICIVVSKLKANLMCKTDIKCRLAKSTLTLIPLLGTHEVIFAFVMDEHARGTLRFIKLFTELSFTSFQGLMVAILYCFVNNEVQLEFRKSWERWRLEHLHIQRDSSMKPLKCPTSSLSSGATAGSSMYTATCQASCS
Excerpt: as §1, §2, §3

[3] = target: T3, endogenous GLP-1 receptors (Mus musculus, UniProt O35659); assay: Agonistic activity on endogenous GLP-1 receptor (cAMP, murine insulinoma cell line); details: intracellular cAMP, 15 minutes at 26° C.; read-out: EC50 GLP-1R (murine insulinoma cells)
T3 construct: Agonistic activity of the test compounds on endogenous GLP-1 receptors; endogenous in cells
T3 sequence (O35659 22-463): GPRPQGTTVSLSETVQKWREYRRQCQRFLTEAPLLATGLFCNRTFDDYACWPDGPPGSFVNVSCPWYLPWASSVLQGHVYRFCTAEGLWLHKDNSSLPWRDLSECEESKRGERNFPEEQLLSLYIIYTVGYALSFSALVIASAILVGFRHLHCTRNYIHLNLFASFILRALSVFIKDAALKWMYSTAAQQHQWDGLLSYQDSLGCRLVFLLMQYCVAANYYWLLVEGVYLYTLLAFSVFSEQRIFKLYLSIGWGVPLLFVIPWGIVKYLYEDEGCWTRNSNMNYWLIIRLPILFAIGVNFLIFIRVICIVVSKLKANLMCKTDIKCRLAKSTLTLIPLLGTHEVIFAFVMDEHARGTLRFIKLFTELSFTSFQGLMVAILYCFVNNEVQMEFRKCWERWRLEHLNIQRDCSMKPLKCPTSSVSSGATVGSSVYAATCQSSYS
Experimental: Agonistic activity of the test compounds on endogenous GLP-1 receptors was determined using a murine insulinoma cell line. Intracellular cAMP was used an indicator of receptor activation.
Cells were cultured for 24 h at a density of 10,000 cells/well in a 384-well plate. Medium was removed and 10 μL KRBH buffer (NaCl 130 mM, KCl 3.6 mM, NaH2PO4 0.5 mM, MgSO4 0.5 mM, CaCl2) 1.5 mM) containing test compound or GLP-1 (at increasing concentrations from […] to 100 nM) or solvent control (0.1% (v/v) DMSO) was added to the wells for 15 minutes at a temperature of 26° C.
The cellular cAMP content is measured using the AlphaScreen cAMP Functional Assay Kit (Perkin Elmer). Measurement was performed using the Envision (PerkinElmer) according to manufacturer's recommendations.
All measurements were performed in quadruplicate.
Results were converted into cAMP concentrations using a cAMP standard curve prepared in KRBH buffer containing 0.1% (v/v) DMSO. The resulting cAMP curves were plotted as absolute cAMP concentrations (nM) over log (test compound concentration) and analyzed using the curve fitting program XLfit.
Parameters calculated to describe the both the potency as well as the agonistic activity of each test compound on the endogenous GLP-1 receptors were:
pEC50 (negative logarithmic value of EC50, a concentration resulting in a half-maximal elevation of cAMP levels, reflecting the potency of the test compound);
Percent control (% CTL)(% cAMP elevation for each test compound concentration normalized based on the GLP-1-induced maximum cAMP response (100% CTL)).

[4] = target: T4, endogenous glucagon receptor (Rattus norvegicus, UniProt P30082); assay: Agonistic activity on endogenous glucagon receptor (glycogen synthesis rate in primary rat hepatocytes); details: inhibition of glycogen synthesis rate, 3 hours, read-out: EC50 GLP-1R Rat hepat.
T4 construct: Agonistic activity of the test compounds on endogenous glucagon receptor; endogenous in cells; host or cells: primary rat hepatocytes
T4 sequence (P30082 27-485): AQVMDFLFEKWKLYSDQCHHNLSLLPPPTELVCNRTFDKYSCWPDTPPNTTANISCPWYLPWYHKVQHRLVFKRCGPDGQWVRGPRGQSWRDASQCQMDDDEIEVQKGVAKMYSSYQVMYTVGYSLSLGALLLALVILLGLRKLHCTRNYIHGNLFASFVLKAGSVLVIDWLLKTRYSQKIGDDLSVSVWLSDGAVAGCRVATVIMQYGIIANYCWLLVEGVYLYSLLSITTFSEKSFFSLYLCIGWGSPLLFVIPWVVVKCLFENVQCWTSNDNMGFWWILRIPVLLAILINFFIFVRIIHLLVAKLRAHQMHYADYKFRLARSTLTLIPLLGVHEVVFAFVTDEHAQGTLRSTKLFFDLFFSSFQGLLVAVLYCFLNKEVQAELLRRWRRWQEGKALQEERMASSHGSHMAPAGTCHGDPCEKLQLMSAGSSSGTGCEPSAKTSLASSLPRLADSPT
Experimental: Agonistic activity of the test compounds on endogenous glucagon receptor was determined by measuring their effect on rate of glycogen synthesis in primary rat hepatocytes. Upon activation of the glucagon receptor, an inhibition of the glycogen synthesis rate is expected. Rate of glycogen synthesis was determined by counting the amount of radioactively labeled glucose incorporated into the cellular glycogen stores in a defined period of time.
Primary rat hepatocytes were cultured at a density of 40,000 cells/well in a 24-well plate for 24 hours at 37° C. and 5% CO2.
Medium was discarded and the cells washed with PBS. 180 μL of KRBH-based buffer containing 0.1% BSA and glucose at a concentration of 22.5 mM was then added to the wells, followed by test compound and 40 μCi/ml D-[U14C] glucose (20 μL each). Incubation was continued for 3 hours.
At the end of the incubation period, the incubation buffer was aspirated and cells washed once with ice-cold PBS before lysis by incubation for 30 min at room temperature with 100 μL 1 mol/l NaOH.
Cell lysates were transferred to 96-well filter plates and glycogen precipitated by incubating the filter-plates for 120 min at 4° C. followed by washing the filter plates 4 times with ice-cold ethanol (70%). The resulting precipitates were filtered to dryness and the amount of incorporated ^14C-glucose determined by using a Topcount scintillation counter according to manufacturer's recommendations.
Wells with vehicle controls (0.1% (v/v) DMSO in KRBH buffer) were included as reference for non-inhibited glycogen synthesis (100% CTL). Wells without added D-[U^14C] glucose were included as controls for non-specific background signal (subtracted from all values). Endogenous glucagon peptide was used as a positive control.
All treatments were performed at least in triplicates.
Parameters calculated to describe the both the potency as well as the agonistic activity of each test compound on the endogenous glucagon receptor are pEC50 and % CTL. % CTL is determined by calculating the percentage of CPM/well in the presence of the test compound compared to the CPM/well of the vehicle control after subtracting the background CPM/well: [CPM/well(basal)−CPM/well(sample)]*100/[CPM/well(basal)−CPM/well(control)]
An activator of the glucagon receptor will result in an inhibition of the glycogen synthesis rate and will give % CTL values between 0% CTL (complete inhibition) and 100% CTL (no observable inhibition).
The resulting activity curves were plotted as absolute counts (unit: cpm/sample) over log (test compound concentration) and analyzed using the curve fitting program XLfit.
pEC50 (negative logarithmic value of EC50) reflects the potency of the test compound.
The terms EC50 and pEC50 quoted in relation to GLP-1R activation could equally be regarded as IC50 and pIC50 in relation to glycogen synthesis.

Row | EC50 [1] | Ratio GLP-1/Glucagon [2] | EC50 [2] | EC50 [3] | EC50 [4] | Structure (SMILES)
1 | 1.32 nM | 0.09 | 0.12 nM | 0.3 nM | 3.4 nM | CCCCCCCCCCCCCCCC(=O)N[C@@H](CCC(=O)NCCCC[C@H](NC(=O)[C@H](CO)NC(=O)[C@H](CCC(=O)O)NC(=O)[C@H](CC(C)C)NC(=O)[C@H](Cc1ccc(O)cc1)NC(=O)[C@H](CCCCN)NC(=O)[C@H](CO)NC(=O)[C@H](Cc1ccc(O)cc1)NC(=O)[C@H](CC(=O)O)NC(=O)[C@H](CO)NC(=O)[C@@H](NC(=O)[C@H](Cc1ccccc1)NC(=O)[C@@H](NC(=O)CNC(=O)[C@H](CCC(N)=O)NC(=O)C(C)(C)NC(=O)[C@@H](N)Cc1c[nH]cn1)[C@@H](C)O)[C@@H](C)O)C(=O)N[C@@H](C)C(=O)N[C@@H](C)C(=O)N[C@@H](CCC(=O)O)C(=O)N[C@@H](CC(=O)O)C(=O)N[C@@H](Cc1ccccc1)C(=O)N[C@H](C(=O)N[C@@H](CCC(=O)O)C(=O)N[C@@H](Cc1c[nH]c2ccccc12)C(=O)N[C@@H](CC(C)C)C(=O)N[C@@H](CCC(=O)O)C(=O)N[C@@H](CO)C(=O)N[C@@H](C)C(N)=O)[C@@H](C)CC)C(=O)O [Compound 21, H-H-Aib-QGTFTSDYSKYLES-K(Hexadecanoyl-isoGlu)-AAEDFIEWLESA-NH2] (H-H[Aib]QGTFTSDYSKYLESK([γGlu-Palmitoyl])AAEDFIEWLESA-NH2)
2 | 0.16 nM | 1.94 | 0.31 nM | 0.41 nM | 0.15 nM | CCCCCCCCCCCCCCCC(=O)N[C@@H](CCC(=O)NCCCC[C@H](NC(=O)[C@H](CCC(=O)O)NC(=O)[C@H](CC(=O)O)NC(=O)[C@H](CC(C)C)NC(=O)[C@H](Cc1ccc(O)cc1)NC(=O)[C@H](CCCCN)NC(=O)[C@H](CO)NC(=O)[C@H](Cc1ccc(O)cc1)NC(=O)[C@H](CC(=O)O)NC(=O)[C@H](CO)NC(=O)[C@@H](NC(=O)[C@H](Cc1ccccc1)NC(=O)[C@@H](NC(=O)CNC(=O)[C@H](CCC(N)=O)NC(=O)[C@@H](CO)NC(=O)[C@@H](N)Cc1c[nH]cn1)[C@@H](C)O)[C@@H](C)O)C(=O)N[C@@H](C)C(=O)N[C@@H](C)C(=O)N[C@@H](CCCCN)C(=O)N[C@@H](CC(=O)O)C(=O)N[C@@H](Cc1ccccc1)C(=O)N[C@H](C(=O)N[C@@H](CCC(=O)O)C(=O)N[C@@H](Cc1c[nH]c2ccccc12)C(=O)N[C@@H](CC(C)C)C(=O)N[C@@H](CCC(=O)O)C(=O)N[C@@H](CO)C(=O)N[C@@H](C)C(N)=O)[C@@H](C)CC)C(=O)O [Compound 25, H-H-DSer-QGTFTSDYSKYLDE-K(Hexadecanoyl-isoGlu)-AAKDFIEWLESA-NH2]
3 | 0.1 nM | 2.40 | 0.24 nM | 0.35 nM | 0.28 nM | CCCCCCCCCCCCCCCC(=O)N[C@@H](CCC(=O)NCCCC[C@H](NC(=O)[C@H](CCC(=O)O)NC(=O)[C@H](CCC(=O)O)NC(=O)[C@H](CC(C)C)NC(=O)[C@H](Cc1ccc(O)cc1)NC(=O)[C@H](CCCCN)NC(=O)[C@H](CO)NC(=O)[C@H](Cc1ccc(O)cc1)NC(=O)[C@H](CC(=O)O)NC(=O)[C@H](CO)NC(=O)[C@@H](NC(=O)[C@H](Cc1ccccc1)NC(=O)[C@@H](NC(=O)CNC(=O)[C@H](CCC(N)=O)NC(=O)[C@H](CO)NC(=O)[C@@H](N)Cc1c[nH]cn1)[C@@H](C)O)[C@@H](C)O)C(=O)N[C@@H](C)C(=O)N[C@@H](C)C(=O)N[C@@H](CCCCN)C(=O)N[C@@H](CC(=O)O)C(=O)N[C@@H](Cc1ccccc1)C(=O)N[C@H](C(=O)N[C@@H](CCC(=O)O)C(=O)N[C@@H](Cc1c[nH]c2ccccc12)C(=O)N[C@@H](CC(C)C)C(=O)N[C@@H](CCC(=O)O)C(=O)N[C@@H](CO)C(=O)N[C@@H](C)C(N)=O)[C@@H](C)CC)C(=O)O [Compound 22, H-HSQGTFTSDYSKYLEE-K(Hexadecanoyl-isoGlu)-AAKDFIEWLESA-NH2] (H-HSQGTFTSDYSKYLEEK([γGlu-Palmitoyl])AAKDFIEWLESA-NH2)
